Assay results published in patent publication US8614237B2, “Benzofuran-4,5-diones as selective peptide deformylase inhibitors” (Sloan-Kettering Institute for Cancer Research, priority 2009, dated 2013).

Tests used:
[1] = target: T1, HsPDF (Homo sapiens, UniProt Q9HBH1); experiment: HsPDF IC50
T1 construct: A 63 amino acid N-terminally truncated human peptide deformylase (HsPDF); 6His (C); made in house; host or cells: E. coli BL21 (DE3), co-transformed with the GroES/EL chaperone plasmid
From the text: Table printed on a drawing sheet, Figure 7
Head of the field: HsPDF IC50
The patent's description of the figure: FIG. 7. Cytotoxicity profiling for the thirty-three (33) derivatives of benzofuran-4,5-diones toward […]. The IC50 in μM for each compound toward each cell line is summarized as a heat map.
Where the first naming reader finds the target: head: HsPDF IC50

[2] = test system: EcPDF
Protocol: Head of the field: EcPDF %I 10uM
(§4) Specificity profiling of the derivatives of benzofuran-4,5-diones.
Where the first naming reader finds the target: head: EcPDF %I 10uM

[3] = target: T2, HsPDF (Homo sapiens, UniProt Q9HBH1); experiment: FLUO functional assay (fluorescamine, substrate fMAHA); format: biochemical; settings: 0.5 μM HsPDF, upper limit 10 μM compound
T2 construct: A 63 amino acid N-terminally truncated human peptide deformylase (HsPDF); 6His (C); made in house; host or cells: E. coli BL21 (DE3), co-transformed with the GroES/EL chaperone plasmid
T2 sequence (Q9HBH1 64-243 limits assumed): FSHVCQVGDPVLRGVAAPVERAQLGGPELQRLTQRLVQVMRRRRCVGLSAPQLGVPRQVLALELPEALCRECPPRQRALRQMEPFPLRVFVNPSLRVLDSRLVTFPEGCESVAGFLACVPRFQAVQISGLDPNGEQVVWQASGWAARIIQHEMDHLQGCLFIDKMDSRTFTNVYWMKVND
Protocol: High controls consisted of 1% DMSO (v/v). […] The deformylation reaction mixture was incubated for one hour at room temperature. A separate set of plates containing 3 μL of fluorescamine at 1 mg/mL in 100% DMSO was prepared for the labeling step. Then, 17 μL of the reaction mixture from the original set of plates was transferred to the plates containing the fluorescamine solution for the labeling step. The readout was performed on a Perkin Elmer VICTOR^3 V™ Multi label counter, using an excitation wavelength of 355 nm, and an emission wavelength of 460 nm. […] Compounds inducing a variation of fluorescence greater than 20% were flagged as optically active compounds.
High controls consisted of 1% DMSO (v/v). […] The deformylation reaction mixture was incubated for one hour at room temperature. A separate set of plates containing 3 μL of fluorescamine at 1 mg/mL in 100% DMSO was prepared for the labeling step. Then, 17 μL of the reaction mixture from the original set of plates was transferred to the plates containing the fluorescamine solution for the labeling step. The readout was performed on a Perkin Elmer VICTOR3 V™ Multi label counter, using an excitation wavelength of 355 nm, and an emission wavelength of 460 nm.

[4] = test system: panel of eight cancer cell lines; experiment: Cytotoxicity profiling of 26 second generation derivatives (Alamar Blue viability assay, nuclei count); format: cell-based, human
Protocol: Cytotoxicity profiling for the 26 newly synthesized benzofuran-4,5-diones derivatives was performed on a panel of eight cancer cell lines.
The cell lines HL-60 (human acute promyelocytic leukemia), Jurkat (human acute T cell leukemia), Molt3 (acute lymphoblastic leukemia), CWR22 (prostate carcinoma), K562 (human chronic myeloid leukemia lymphoblasts), and Y79 (human retinoblastoma) were obtained from the ATCC, and cultured following ATCC recommendations. The cell line HL-60/RV+ (a P-glycoprotein-overexpressing multi-drug resistant HL-60 variant selected by continuous exposure to vincristine) was described elsewhere (Weisburg J H, Roepe P D, Dzekunov S, Scheinberg D A: Intracellular pH and multidrug resistance regulate complement-mediated cytotoxicity of nucleated human cells. J Biol Chem 1999; 274:10877-10888). The cell line ALL-3 (acute lymphoblastic leukemia isolated from a patient treated at MSKCC and characterized as Philadelphia chromosome positive) was obtained from Dr. Mark Frattini (MSKCC). The viability assay we used in this study is based on the dye resazurin and commercially sold as Alamar Blue (O'Brien J, Wilson I, Orton T, Pognan F: Investigation of the Alamar Blue (resazurin) fluorescent dye for the assessment of mammalian cell cytotoxicity. Eur J Biochem 2000; 267:5421-5426). Cells were added in 45 μL medium to the pre-plated compounds in 5 μL of 1% DMSO (v/v). After 72 h incubation was added 5 μL Alamar Blue. […] Plates were then fixed and nuclei were stained using Hoechst for the nuclear count proliferation assay. Imaging for Hoechst staining of nuclei count were acquired with an IN Cell Analyzer 2000 epifluorescence automated microscope ([…]) (GE Healthcare, Piscataway, N.J.) equipped with a 4× objective, using D360/40 excitation filter (360 nm excitation peak; +/−40 nm bandpass), HQ535/50 emission filter (535 nm emission peak; +/−50 nm bandpass) and Q505LP dichroic, and exposing fields for 200 milliseconds in the blue channel. Image analysis was conducted with the IN Cell Developer 1.7 software (GE Healthcare) using custom-developed analysis modules. The analysis module used for nuclei count performs object segmentation in the blue channel to automatically define and count the number of nuclei. Data is reported as the sum of imaged nuclei.
In addition of the Alamar Blue viability assay readout, for the adherent cell lines of this panel (CWR22 and Meso47) we performed a direct nuclei count to assess the effect of the novel derivatives on cell proliferation.

[5] = target: T2, HsPDF; experiment: FP binding assay (fluorescence polarization, probe SKI 267088), specificity profiling and dose response; settings: for activity toward HsPDF, FP assay: specificity profiling / dose response
Protocol: Specificity profiling was performed on the newly synthesized benzofuran-4,5-diones using the aforementioned FP profiling method (Antczak et al., J. Biomol. Screen 2008, 13, 285-294).
Compounds or high/low controls were added to the wells at a volume of 2 μL. […] High controls consisted of 1% DMSO (v/v). MBP-HsPDF or the metalloprotease to be tested was diluted in the assay buffer (25 mM Hepes, 50 mM NaCl, 0.005% Tween 20, pH 7.5), and 10 μL where added to the 384-well microplates (Low Volume Round Bottom NBS Treated, Corning) to achieve a final concentration of 1 μM. After addition of MBP-HsPDF to the tested compounds, the 384-well microplates were preincubated for one hour at room temperature. Then 8 μL of the probe SKI 267088 in solution in assay buffer was added to the wells at a final concentration of 5 nM. After one hour incubation at room temperature, the fluorescence polarization was read using the Amersham LEADseeker™ Multimodality Imaging System equipped with Cy3 excitation/emission filters and Cy3 FP epi-mirror. Quench tests were performed in duplicate by measuring the fluorescence polarization of wells containing the probe, pre- and post-addition of the compounds at 100 μM.
In each assay, the signal inhibition induced by the compounds was expressed as a percentage compared to high and low controls located on the same plate, as defined as % Inhibition=(high control average−read value)/(high control average−low control average)×100. The dose response was assessed in duplicate and using 12 point doubling dilutions with 100 μM compound concentration as the upper limit. The dose response curve for each set of data was fitted separately, and the two IC50 values obtained were averaged.

[6] = test system: MMP-1; experiment: MMP-1 %I 100uM
Protocol: (§1) Table printed on a drawing sheet, Figure 5
Head of the field: MMP-1 %I 100uM
(§2) Footnotes: -26 124 % inhibition
(§3) The patent's description of the figure: FIG. 5.
Where the first naming reader finds the target: head: MMP-1 %I 100uM

[7] = test system: APN; experiment: APN %I 100uM
Protocol: as §1
Head of the field: APN %I 100uM
as §2, §3
Where the first naming reader finds the target: head: APN %I 100uM

[8] = test system: EcPDF; remark: listed apart in the source
Protocol: Head of the field: EcPDF %I 100uM
as §4
Where the first naming reader finds the target: head: EcPDF %I 100uM

[9] = In vivo toxicity of benzofuran-4,5-diones; settings: i.p. twice a day for four days, 1 to 10 mg/kg, monitored 14 days
Protocol: Lead compound SKC-BF-13 and another newly synthesized derivative SKC-BF-02 were selected in order to assess the in vivo toxicity of benzofuran-4,5-diones. Three mice per group were treated with BF-13 at three doses (i.e., 1, 5 and 10 mg/kg) or with SKC-BF-02 at two doses (i.e., 1 and 10 mg/kg). A control group of two mice were treated with the vehicle (i.e., 20% DMSO v/v). Mice were treated twice a day for four days via intraperitoneal administration. Their weight was monitored along with any other signs of toxicity for fourteen days.
ICR/SCID male mice about three weeks old were used in this study. Three mice per group were treated with BF-13 at three doses (i.e., 1, 5 and 10 mg/kg) or with SKC-BF-02 at two doses (i.e., 1 and 10 mg/kg). A control group of two mice were treated with the vehicle (20% DMSO v/v). Mice were treated twice a day for four days via intraperitoneal administration. Their weight was monitored as well as any other sign of toxicity for 14 days.
SKI 396848 (SKC-BF-12) and SKI 396840 (SKC-BF-02) were synthesized during the first round of exploratory chemistry to assess the in vivo toxicity of benzofuran-4,5-diones (as shown in FIG. 8). Three ICR/SCID male mice per group were treated with SKI 396848 at three doses: 1, 5 and 10 mg/kg or with SKI 396840 at two doses: 1 and 10 mg/kg. A control group of two mice was treated with the vehicle (20% DMSO v/v). Mice were treated twice a day for four days i.p. Their weight was monitored as well as any other sign of toxicity for 14 days. One treated mouse per group was evaluated by a pathologist.

[10] = test system: panel of cancer cell lines; experiment: Cytotoxicity assay (Alamar Blue), primary hits and first generation derivatives; format: cell-based, human; settings: first generation, panel of nine cancer cell lines
Protocol: Cytotoxicity assays were performed in order to profile the thirty-three newly synthesized benzofuran-4,5-dione derivatives on a panel of nine cancer cell lines. A heat map summarizes the calculated IC50s ([…]). Twelve out of thirteen derivatives potent toward HsPDF were also cytotoxic toward several cancer cell lines (FIG. 7).
The cell lines HL-60 (human acute promyelocytic leukemia), Jurkat (human acute T cell leukemia), Molt3 (acute lymphoblastic leukemia), CWR22 (prostate carcinoma), HEK293 (human embryonic kidney), K562 (human chronic myeloid leukemia lymphoblasts), Y79 (human retinoblastoma) were obtained from the ATCC, and cultured following ATCC recommendations. The cell line NCEB-1 (human non-hodgkin lymphoma) was obtained from Dr. O'Connor (Sloan-Kettering Institute). The cell line HL-60/RV+ (a P-glycoprotein-overexpressing multi-drug resistant HL-60 variant selected by continuous exposure to vincristine) was described elsewhere (Weisburg et al., J. Biol. Chem. 1999, 274, 10877-10888). The cell line ALL-3 (acute lymphoblastic leukemia isolated from a patient treated at MSKCC and characterized as Philadelphia chromosome positive) was obtained from Dr. Mark Frattini (MSKCC). The assay used for the cytotoxicity studies is based on the dye resazurin and commercially sold as Alamar Blue (O'Brien et al., Eur. J. Biochem. 2000, 267, 5421-5426). […]

O=C1C(=O)c2c(C(=O)c3ccccc3)coc2C(Cl)=C1Cl [SKC-BF-09, 3-Benzoyl-6,7-dichloro-benzofuran-4,5-dione]
IC50 [1]: 45 µM
EcPDF %I 10uM [2]: 43 %I

O=C1C(=O)c2c(C(=O)c3ccc(C(=O)O)cc3)coc2C(Cl)=C1Cl [SKI 417519, 4-(6,7-dichloro-4,5-dioxo-4,5-dihydrobenzofuran-3-carbonyl)benzoic acid]
IC50 [3]: 690 nM
activity against the cell lines of the panel, second generation [4]: not active toward most of the cell lines tested

COc1ccc(C(=O)c2coc3c2C(=O)C(=O)c2ccccc2-3)cc1 [SKC-NF-01, 3-(4-Methoxy-benzoyl)-naphtho[1,2-b]furan-4,5-dione]
activity toward HsPDF, FP assay [5]: inactive
MMP-1 %I 100uM [6]: 27 %I
APN %I 100uM [7]: 22 %I
EcPDF %I 100uM [8]: 23 %I
EcPDF %I 10uM [2]: 30 %I

COc1ccc(C(=O)c2coc3c2C(=O)C(=O)C=C3)cc1 [SKC-BF-02, 3-(4-Methoxy-benzoyl)-benzofuran-4,5-dione]
signs of toxicity in vivo (weight and other signs) [9]: none of the treatments induced any sign of toxicity
signs of toxicity in vivo (weight and other signs) ([9]; listed as SKI 396840): None of the treatments were found to induce any signs of toxicity

O=C1C=Cc2occ(C(=O)c3ccccc3)c2C1=O [SKC-BF-01, 3-Benzoyl-benzofuran-4,5-dione]
IC50 ([5]; dose response, 12 point doubling dilutions, upper limit 100 μM): 59 µM
selectivity for HsPDF in a panel of metalloproteases ([5]; panel HsPDF, EcPDF, APN and MMP-1): most selective HsPDF inhibitors
APN %I 100uM [7]: 5 %I
EcPDF %I 100uM [8]: 32 %I

COc1ccc(C(=O)c2coc3c2C(=O)C(=O)C(Cl)=C3Cl)cc1OC [SKC-BF-10, 6,7-Dichloro-3-(3,4-dimethoxy-benzoyl)-benzofuran-4,5-dione]
activity toward HsPDF, FP assay [5]: potent HsPDF inhibitor
cytotoxicity toward cancer cell lines [10]: not very active toward any cancer cell line tested
MMP-1 %I 100uM [6]: 46 %I
EcPDF %I 10uM [2]: 24 %I

COc1ccc(C(=O)c2coc3c2C(=O)C(=O)C(Cl)=C3)cc1 [SKC-BF-04, 6-Chloro-3-(4-methoxybenzoyl)-benzofuran-4,5-dione]
IC50 [1]: 40 µM
EcPDF %I 10uM [2]: -6 %I

O=C(O)COc1ccc(C(=O)c2coc3c2C(=O)C(=O)C(Cl)=C3Cl)cc1 [SKI 417521, 2-(4-(6,7-dichloro-4,5-dioxo-4,5-dihydrobenzofuran-3-carbonyl)phenoxy)acetic acid]
IC50 [3]: 620 nM
activity against the cell lines of the panel, second generation [4]: not active toward most of the cell lines tested

O=C(O)COc1ccc(C(=O)c2coc3c2C(=O)C(=O)C(Br)=C3Br)cc1 [SKI 417520, 2-(4-(6,7-dibromo-4,5-dioxo-4,5-dihydrobenzofuran-3-carbonyl)phenoxy)acetic acid]
IC50 [3]: 680 nM
activity against the cell lines of the panel, second generation [4]: not active toward most of the cell lines tested
